Data: patent US20260297042A1, “BIARYLAMIDE DERIVATIVES AND THEIR USE AS PKMYT1 INHIBITORS” (CANCER RESEARCH TECHNOLOGY LIMITED, priority 2023, published 2026)

Key:
Human PKMYT1 = molecular target: T1, Human PKMYT1 (Homo sapiens, UniProt Q99640); test: PKMYT1 biochemical ADP-Glo enzymatic assay; details: ADP-Glo
T1 construct: Human PKMYT1 75-362 was cloned as a TEV cleavable 6xHis fusion; 6xHis (TEV cleavable) (cleaved yes); made in house; host or cells: bacterial cells
T1 sequence (Q99640 75-362): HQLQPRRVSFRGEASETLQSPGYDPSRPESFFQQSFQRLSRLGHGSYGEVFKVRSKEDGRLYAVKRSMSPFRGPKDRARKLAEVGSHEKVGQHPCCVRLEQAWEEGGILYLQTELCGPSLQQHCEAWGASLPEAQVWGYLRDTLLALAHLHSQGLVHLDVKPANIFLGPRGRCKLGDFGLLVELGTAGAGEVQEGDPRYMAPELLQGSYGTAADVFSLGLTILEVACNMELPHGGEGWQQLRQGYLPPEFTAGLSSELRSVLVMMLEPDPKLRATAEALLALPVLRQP
In short: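 Measures inhibition of PKMYT1 autonomous ATP hydrolysis: bacterially expressed human enzyme (75-362, tag cleaved) at 15 nM with 500 µM ATP for 60 min at 26 °C, then ADP-Glo Max detection. IC50s accepted only when replicates agreed within 3-fold and curve r2 exceeded 0.9.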

WEE1 = molecular target: T2, WEE1 (Homo sapiens, UniProt P30291); test: Selectivity versus WEE1 assay (ADP-Glo enzymatic assay); format: biochemical; details: for IC50: ADP-Glo; for PKMYT1 vs. WEE1 selectivity: fold difference in selectivity for PKMYT1 over WEE1
T2 construct: purchased Thermo Fisher PR7373A
In short: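 Same format as the PKMYT1 assay: WEE1 at 15 nM final with 30 µM ATP, 60 min at 26° C, ADP-Glo luminescence detection, IC50 by dose-response fitting.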

OVCAR 3 cells = test: Cancer cell line proliferation assay, ATP-based cell viability (Cell Titre Glow), OVCAR 3 (CCNE1-amplified); details: KYSE30 (normal CCNE1) GI50 vs. OVCAR 3 (CCNE1-amplified) GI50
In short: (§1)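 GI50 reflects half-maximal growth inhibition by PKMYT1 inhibitors, derived by curve fitting of CellTiter-Glo luminescence signals.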

KYSE-30 cells = test: Cancer cell line proliferation assay, ATP-based cell viability (Cell Titre Glow), KYSE-30 (normal CCNE1); details: Homo sapiens, KYSE-30 cells (normal CCNE1), concentration that achieves 50% cell growth proliferation inhibition, read-out: KYSE30 Gl50
In short: as §1

[1] = PKMYT1 kinase domain 15 nM, banded values
[2] = 15 nM PKMYT1 kinase domain, 500 µM ATP, 60 minutes at 26° C., banded
[3] = 15 nM WEE1, 60 minutes at 26° C., banded
[4] = banded, ">N" = at least in this band but could be higher

T2 sequence (P30291 whole entry): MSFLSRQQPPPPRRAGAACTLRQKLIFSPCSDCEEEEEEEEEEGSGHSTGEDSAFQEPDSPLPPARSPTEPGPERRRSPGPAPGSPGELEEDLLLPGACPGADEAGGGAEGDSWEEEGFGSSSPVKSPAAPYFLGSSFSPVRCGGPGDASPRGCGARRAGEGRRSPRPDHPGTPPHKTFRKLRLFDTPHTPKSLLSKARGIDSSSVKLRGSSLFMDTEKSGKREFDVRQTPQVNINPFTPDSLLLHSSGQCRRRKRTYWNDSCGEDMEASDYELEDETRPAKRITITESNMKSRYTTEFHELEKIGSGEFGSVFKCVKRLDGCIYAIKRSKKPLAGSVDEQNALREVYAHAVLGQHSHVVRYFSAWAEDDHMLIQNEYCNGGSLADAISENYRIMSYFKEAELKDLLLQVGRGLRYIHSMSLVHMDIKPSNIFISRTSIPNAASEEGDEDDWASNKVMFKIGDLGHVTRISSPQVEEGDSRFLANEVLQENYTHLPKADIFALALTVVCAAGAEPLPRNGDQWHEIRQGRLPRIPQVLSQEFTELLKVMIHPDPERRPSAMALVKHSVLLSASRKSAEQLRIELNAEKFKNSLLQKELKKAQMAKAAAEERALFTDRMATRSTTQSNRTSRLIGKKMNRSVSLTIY

Row | Compound | IC50 (Human PKMYT1; [1]) | IC50 (WEE1; WEE1 15 nM, banded values) | PKMYT1 vs. WEE1 selectivity (WEE1; banded) | Selectivity ratio KYSE30 Gl50 vs. OVCAR3 Gl50 (OVCAR 3 cells) | GI50 (KYSE-30 cells) | IC50 (Human PKMYT1; [2]) | IC50 (WEE1; [3]) | PKMYT1 vs. WEE1 selectivity (WEE1; [4])
1 | Cc1ccc(O)c(C)c1NC(=O)c1cnc(Nc2nn(CC(F)(F)F)c3ccccc23)s1 [BAA-457, N-(3-hydroxy-2,6-dimethylphenyl)-2-((1-(2,2,2-trifluoroethyl)-1H-indazol-3-yl)amino)thiazole-5-carboxamide] | < 50 nM | 1000 to 11000 nM | X (100-<1000 fold) | Y (>20 fold) | 500 to 5000 nM |  |  | 
2 | Cc1ccc(NC(=O)NC(C)(C)C)nc1Nc1ncc(C(=O)Nc2c(C)ccc(O)c2C)s1.Cl [BAA-336, 2-((6-(3-(tert-butyl)ureido)-3-methylpyridin-2-yl)amino)-N-(3-hydroxy-2,6-dimethylphenyl)thiazole-5-carboxamide hydrochloride] |  |  |  | Y (>20 fold) | > 5000 nM | 50 to 1000 nM | > 11000 nM | X (100-<1000 fold)
3 | Cc1ccc(O)c(C)c1NC(=O)c1cnc(Nc2cccc(NC(=O)C(C)(C)C)n2)s1 [BAA-339, N-(3-Hydroxy-2.6-dimethylphenyl)-2-((6-pivalamidopyridin-2-yl)amino)thiazole-5-carboxamide] |  |  |  | Y (>20 fold) | 500 to 5000 nM | < 50 nM | > 11000 nM | Y (1000-5000 fold)
4 | Cc1ccc(O)c(C)c1NC(=O)c1cnc(Nc2nn(C)cc2Cl)s1 [BAA-541, 2-((4-chloro-1-methyl-1H-pyrazol-3-yl)amino)-N-(3-hydroxy-2,6-dimethylphenyl)thiazole-5-carboxamide] | < 50 nM | 1000 to 11000 nM | X (100-<1000 fold) | Y (>20 fold) | > 5000 nM |  |  | 
5 | Cc1cn(-c2cnc(Cl)cc2Br)nc1Nc1ncc(C(=O)Nc2c(C)ccc(O)c2C)s1 [BAA-378] |  |  |  | X (3-20 fold) | 500 to 5000 nM | 50 to 1000 nM | 1000 to 11000 nM | W (10-<100 fold)
6 | Cc1cn(-c2ccc(Cl)cn2)nc1Nc1ncc(C(=O)Nc2c(C)ccc(O)c2C)s1 [BAA-376, 2-((1-(5-Chloropyridin-2-yl)-4-methyl-1H-pyrazol-3-yl)amino)-N-(3-hydroxy-2,6-dimethylphenyl)thiazole-5-carboxamide] |  |  |  | Y (>20 fold) | 500 to 5000 nM | 50 to 1000 nM | > 11000 nM | X (100-<1000 fold)
7 | Cc1cn(-c2cccc(F)c2)nc1Nc1ncc(C(=O)Nc2c(C)ccc(O)c2C)s1 [BAA-368, 2-((1-(3-fluorophenyl)-4-methyl-1H-pyrazol-3-yl)amino)-N-(3-hydroxy-2,6-dimethylphenyl)thiazole-5-carboxamide] |  |  |  | Y (>20 fold) | > 5000 nM | < 50 nM | > 11000 nM | Y (1000-5000 fold)
8 | Cc1ccc(O)c(C)c1NC(=O)c1cnc(Nc2nn(-c3ccccn3)cc2Cl)s1 [BAA-383, 2-((4-chloro-1-(pyridin-2-yl)-1H-pyrazol-3-yl)amino)-N-(3-hydroxy-2,6-dimethylphenyl) thiazole-5-carboxamide] |  |  |  | X (3-20 fold) | 500 to 5000 nM | < 50 nM | > 11000 nM | Y (1000-5000 fold)
9 | CCN(CC)C(=O)C(C)n1ccc(Nc2ncc(C(=O)Nc3c(C)ccc(O)c3C)s2)n1 (stereo not drawn) [BAA-512, 2-((1-(1-(diethylamino)-1-oxopropan-2-yl)-1H-pyrazol-3-yl)amino)-N-(3-hydroxy-2,6-dimethylphenyl)thiazole-5-carboxamide] | < 50 nM | > 11000 nM | Y (1000-5000 fold) | Y (>20 fold) | > 5000 nM |  |  | 
